Measurements taken from patent publication US10759799B2, “Indazole containing macrocycles and therapeutic uses thereof” (Samumed, LLC, priority 2018, dated 2020).

Key:
[1] = tested on: Wnt activity (Sp5-Luc reporter, SW480 colon carcinoma cells); test: Sp5-Luc reporter gene screening assay for Wnt activity in SW480 cells; type: cell-based; conditions: Homo sapiens; for EC50: Sp5-Luc reporter, SW480 cells, 36 to 48 hours
Text: The screening assay for Wnt activity is described as follows. Reporter cell lines can be generated by stably transducing cancer cell lines (e.g., colon cancer) or primary cells (e.g., IEC-6 intestinal cells) with a lentiviral construct that includes a Wnt-responsive promoter driving expression of the firefly luciferase gene.
SW480 colon carcinoma cells were transduced with a lentiviral vector expressing luciferase with a human Sp5 promoter consisting of a sequence of eight TCF/LEF binding sites. SW480 cells stably expressing the Sp5-Luc reporter gene and a hygromycin resistance gene were selected by treatment with 150 μg/mL of hygromycin for 7 days. These stably transduced SW480 cells were expanded in cell culture and used for all further screening activities. […] For Sp5-Luc reporter gene assays, the cells were plated at 4,000 cells/well in 384-well plates with a DMEM medium containing 1% fetal bovine serum, and 1% Penicillin-Streptomycin and incubated for 36 to 48 hours at 37° C. and 5% CO2. Following incubation, 15 μl of BriteLite Plus luminescence reagent (Perkin Elmer) was added to each well of the 384-well assay plates. The plates were placed on an orbital shaker for 2 min and then luminescence was quantified using the Envision (Perkin Elmer) plate reader. Readings were normalized to DMSO only treated cells, and normalized activities were utilized for EC50 calculations using the dose-response log (inhibitor) vs. response-variable slope (four parameters) nonlinear regression feature available in GraphPad Prism 5.0 (or Dotmatics).

[2] = molecular target: recombinant DYRK1A kinase (Homo sapiens (Human), UniProt Q13627); test: DYRK1A kinase assay (Ser/Thr 18 peptide Z-lyte, FRET); type: biochemical; conditions: 30 μM ATP, one hour at room temperature, read-out: EC50 (μM) (IC50 per method)
Text: Representative compounds were screened using the assay procedure for DYRK1A kinase activity as described below.
The DYRK1A kinase assay was run using the Ser/Thr 18 peptide Z-lyte assay kit according to manufacturer's instructions (Life Technologies—a Division of Thermo-Fisher). This is a non-radioactive assay using fluorescence resonance energy transfer (FRET) between coumarin and fluorescein to detect kinase activity which is represented as a ratio of coumarin emission/fluorescein emission.
Briefly, recombinant DYRK1A kinase, ATP and Ser/Thr peptide 18 were prepared in 1× Kinase buffer to final concentrations of 0.19 μg/mL, 30 μM, and 4 μM respectively. The mixture was allowed to incubate with the representative compounds for one hour at room temperature. All reactions were performed in duplicate. Unphosphorylated (“0% Control”) and phosphorylated (“100% control”) forms of Ser/Thr 18 served as control reactions. Additionally, an 11-point dose-response curve of Staurosporine (1 uM top) was run to serve as a positive compound control.
After incubation, Development Reagent A was diluted in Development Buffer then added to the reaction and allowed to further incubate for one hour at room temperature. The plate was read at Ex 400 Em 455 to detect the coumarin signal and Ex 400 Em 520 to measure the signal (EnVision Multilabel Plate Reader, PerkinElmer).
The Emission ratio (Em) was calculated as a ratio of the coumarin (C) emission signal (at 445 nm)/Fluorescein (F) emission signal (at 520 nm). The percent phosphorylation was then calculated using the following formula: [1−((Em ratio×F100%)−C100%)/((C0%−C100%)+(Em ratio×(F100%−F0%)))].

[3] = tested on: IL-6; test: IL-6 inhibition in LPS-stimulated human PBMCs (HTRF); type: cell-based; conditions: PBMC; for EC50: huPBMCs, LPS 50 ng/mL, 22 hours, IL-6 HTRF; for inhibition at 10 µM: read-out: percent inhibition at 10 μM
Experimental: Fresh Normal PB MNC (Catalog # PB001, AllCells, Alameda, Calif.) were shipped overnight at 4° C. and resuspended in Roswell Park Memorial Institute (RPMI) 1640 Medium, with GlutaMAX Supplement (Catalog #61870127, ThermoFisher Scientific, Waltham, Mass.) supplemented with 1% Penicillin-Streptomycin (Catalog #15140163, ThermoFisher Scientific, Waltham, Mass.) and 1% fetal bovine serum (FBS) (Catalog #16140089, ThermoFisher Scientific, Waltham, Mass.) assay media.
Compound Screening: Fresh normal human peripheral blood mononuclear cells (huPBMCs) were resuspended in 1% FBS-RPMI assay media with 1% Penicillin-Streptomycin 1% to a cell concentration of 1×10e6 cells/mL. […] 50 ng/mL of Lipopolysaccharides from Escherichia coli 0111:B4 (Catalog # L5293-2ML, Sigma-Aldrich, St. Louis, Mo.) was added after 2 hours and cells were incubated for another 22 hours at 37° C.-5% CO2. After 22 hour incubation, a mixture of anti-IL6 XL665 and anti-IL-6 Cryptate diluted in reconstitution buffer (Catalog #62IL6PEC, Cisbio Inc., Bedford, Mass.) was added to each well. Following incubation for 3 hours at room temperature, Homogeneous Time-Resolved Fluorescence (HTRF) was measured using the Envision (Perkin Elmer, Shelton, Conn.) at 665 nm and […]. The ratio of fluorescence at 665 nm to 620 nm was used as a readout for IL-6 quantification. All samples were processed in duplicate. Readings were normalized to DMSO treated cells and normalized activities were utilized for EC50 calculations. EC50 was determined using software generated by Dotmatics Limited (Windhill Bishops Stortford Herts, UK) using the Levenberg-Marquardt 4 parameter fitting procedure with finite different gradients.

[4] = tested on: primary human mesenchymal stem cells (hMSCs); test: Chondrogenesis induction in hMSCs (nodule count, relative to TGF-β3); type: cell-based; conditions: 6 days
Text: Representative compounds were screened using primary human mesenchymal stem cells (hMSCs) to determine their ability to induce chondrogenesis (process by which cartilage is developed).
Human Mesenchymal Stem Cell Culture: Primary human mesenchymal stem cells (hMSCs) were purchased from Lonza (Walkersville, Md.) and expanded in Mesenchymal Stem Cell Growth Media (Lonza). Cells between passage 3 and 6 were used for the experiments.
Number of nodules in each well was normalized to the average of 3 DMSO treated wells on the same plate using Excel (Microsoft Inc.). The normalized averages (fold change over DMSO) of 3 replicate wells for each compound concentration were calculated. Due to solubility limitations of some of the compounds, curve fitting was incomplete leading to inaccurate EC50 determinations.
Using TGF-β3 as a positive control, the concentration of representative compounds required to induce equivalent levels of chondrogenesis is reported. In addition, the maximum activity of each compound and the respective dose that each compound reached maximum chondrogenesis activity is reported.

[5] = from NCc1cncc(-c2ccc3[nH]nc(C(=O)Nc4cncc(-c5cccc(CCC(=O)O)c5)c4)c3c2)c1; amide bond; 20-membered ring; HATU/DIEA/DMAP; DMF; 20.0 mM; 37.0 °C
[6] = TGF-β3 10 ng/mL positive control

EC50 [1] [nM] | IC50 [2] [µM] | EC50 [3] [nM] | SMILES | inhibition at 10 µM [3] [%] | Conc (nM) of 50% TGF-β3 activity [4, 6] [nM] | Max. Activity as % TGF-β3 activity [4, 6] [%] | Conc (nM) of Max. activity ([4]; chondrogenic nodules) [nM] | ring closure, isolated yield [5] [%] | inhibition at 10 µM ([1]; SW480, read-out: percent inhibition at 10 μM) [%]
52 | 0.01 | > 10000 | O=C1CCc2cccc(c2)-c2cncc3[nH]c(nc23)-c2n[nH]c3ccc(cc23)-c2cncc(c2)N1 [Compound 3, (Z)-2^3H,3^1H-5-Aza-2(7,2)-imidazo[4,5-c]pyridina-3 (3,5)-indazola-4(3,5)-pyridina-1(1,3)-benzenacyclooctaphan-6-one] | 43.7 | 50 | 225 | 100 | – | –
> 10000 | 0.009 | > 10000 | O=C1CCc2cccc(c2)-c2cncc(c2)NC(=O)c2n[nH]c3ccc(cc23)-c2cncc(c2)CN1 [Compound 97, 2^1H-4,10-diaza-2(5,3)-indazola-1,5(3,5)-dipyridina-6(1,3)-benzenacycloundecaphane-3,9-dione] | 25.7 | – | – | – | 20.8 | 22.2
